Measured values published in paper PMC6516726 (ACS Catalysis, 2018).
Like-named read-outs stand apart in the source and are kept apart here.

What was measured:
L25A PETNR = L25A PETNR (Enterobacter cloacae, UniProt P71278, L26A); conditions: for kobs1 / kobs2 / A2 (amplitude of kobs2 out of total absorbance change): 10 mM NADPH or 25 mM NADH, pH 7.0
L25I PETNR = L25I PETNR (Enterobacter cloacae, UniProt P71278, L26I); conditions: for kobs1 / A2 (amplitude of kobs2 out of total absorbance change) / kobs2: 10 mM NADPH or 25 mM NADH, pH 7.0
Chain of L25I PETNR (P71278 entry or part of it L26I): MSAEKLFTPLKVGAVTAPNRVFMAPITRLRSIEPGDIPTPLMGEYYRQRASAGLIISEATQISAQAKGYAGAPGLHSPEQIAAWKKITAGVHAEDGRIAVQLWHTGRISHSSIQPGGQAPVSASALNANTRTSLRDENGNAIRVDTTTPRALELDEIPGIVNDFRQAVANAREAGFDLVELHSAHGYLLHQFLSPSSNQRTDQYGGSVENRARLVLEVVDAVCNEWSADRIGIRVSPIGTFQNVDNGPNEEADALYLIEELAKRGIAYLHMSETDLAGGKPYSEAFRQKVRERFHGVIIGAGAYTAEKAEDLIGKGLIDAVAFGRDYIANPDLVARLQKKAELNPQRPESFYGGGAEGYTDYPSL

WT PETNR [1] = biological target: T1, WT PETNR (Enterobacter cloacae, UniProt P71278); assay: pH dependence of FMN reduction of WT PETNR in MTEN buffer; type: biochemical, Enterobacter Cloacae PB2; set-up: made in house; conditions: for Isotope effect on ΔCp⧧ / Isotope effect on ΔHT0⧧ / Isotope effect on ΔST0⧧: (R)-[4-2H]-NADPH - NADPH
T1 sequence (P71278 entry or part of it): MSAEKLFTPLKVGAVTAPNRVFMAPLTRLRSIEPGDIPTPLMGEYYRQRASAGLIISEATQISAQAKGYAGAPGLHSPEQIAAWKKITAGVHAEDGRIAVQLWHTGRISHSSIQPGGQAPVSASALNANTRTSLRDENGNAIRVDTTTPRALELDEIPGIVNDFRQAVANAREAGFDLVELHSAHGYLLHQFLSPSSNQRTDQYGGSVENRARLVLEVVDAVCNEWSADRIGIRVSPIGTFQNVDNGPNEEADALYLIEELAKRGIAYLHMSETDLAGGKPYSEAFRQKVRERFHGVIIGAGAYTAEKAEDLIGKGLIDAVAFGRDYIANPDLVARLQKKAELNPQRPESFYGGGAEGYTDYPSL
Experimental: (R)-[4-2H]-NADPH at pH 6, pH 7 and pH9 (A) and the corresponding temperature dependencies of the observed primary kinetic isotope effects (B). The measurements were performed in MTEN buffer (50 mM MES, 25 mM Tris, 25 mM ethanola-mine, and 100 mM NaCl), which has a useful buffering capacity and minimal change in ionic strength over the pH range 6-9 in which PETNR is stable; we attempted testing PETNR in pH 5 as well, but the enzyme is unstable at this pH. The observed rate constants of FMN reduction at pH 7 in MTEN buffer are essentially the same to those measured in 50 mM potassium phosphate buffer, pH 7 and similar observation are valid for the KIEs values (Table S3).The rate of FMN reduction is essentially insensitive to pH across the whole temperature range (5-40 °C), and also that KIEs values are essentially not affected by changes in pH (the rate of FMN reduction by (R)-[4-2H]-NADPH is independent of pH as well across all temperatures studied; see Table S3 for extracted thermodynamic parameters). Although these experiments cannot completely exclude any kinetic […]
of H-transfer and protonation (which would lead to pH-dependent rates) which makes it very likely that the observed rate are reporting directly on the H-transfer step.
Table S3. Extracted Thermodynamic Parameters from pH Dependence Studies.
(kJ mol-1) (J mol-1 K-1) (kJ mol-1 K-1)

WT PETNR [2] = biological target: T1, WT PETNR; assay: Stopped-flow FMN reduction (reductive half-reaction, hydride transfer) of WT PETNR by coenzyme; conditions: for kobs1 / A2 (amplitude of kobs2 out of total absorbance change) / kobs2: 10 mM NADPH or 25 mM NADH, pH 7.0
PETNR = biological target: PETNR; set-up: method as in earlier work; conditions: PETNR−coenzyme analogue complex; cited from earlier work
[3] = T0 = 298 K, fit of kobs1 (5–40 °C) to eq 1
[4] = deuterated minus protiated coenzyme, T0 = 298 K

Chain of L25A PETNR (P71278 entry or part of it L26A): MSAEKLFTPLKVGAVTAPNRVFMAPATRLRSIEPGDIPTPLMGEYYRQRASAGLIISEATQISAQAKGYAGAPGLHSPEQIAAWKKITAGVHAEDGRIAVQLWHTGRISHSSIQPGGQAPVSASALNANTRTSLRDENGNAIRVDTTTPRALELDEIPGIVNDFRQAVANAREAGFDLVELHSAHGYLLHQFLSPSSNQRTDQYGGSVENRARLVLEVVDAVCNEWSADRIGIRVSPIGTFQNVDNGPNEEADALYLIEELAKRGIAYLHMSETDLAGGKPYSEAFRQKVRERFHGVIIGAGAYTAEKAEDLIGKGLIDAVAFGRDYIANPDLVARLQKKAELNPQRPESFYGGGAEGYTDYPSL

SMILES: [2H][C@@H]1C=CN([C@@H]2O[C@H](COP(=O)(O)OP(=O)(O)OC[C@H]3O[C@@H](n4cnc5c(N)ncnc54)[C@H](OP(=O)(O)O)[C@@H]3O)[C@@H](O)[C@H]2O)C=C1C(N)=O [(R)-[4-^2H]-NADPH]
- kobs1 (L25A PETNR; 5 °C): 2.37 ± 0.01 s⁻¹
- kobs1 (L25A PETNR; 10 °C): 3.33 ± 0.03 s⁻¹
- kobs1 (L25A PETNR; 15 °C): 4.59 ± 0.03 s⁻¹
- kobs1 (L25A PETNR; 20 °C): 6.14 ± 0.04 s⁻¹
- kobs1 (L25A PETNR; 25 °C): 8.01 ± 0.22 s⁻¹
- kobs2 (L25A PETNR; 25 °C): 0.03 ± 0.03 s⁻¹
- A2 (amplitude of kobs2 out of total absorbance change) (L25A PETNR; 30 °C): 5.83 ± 0.60%
- kobs1 (L25A PETNR; 30 °C): 10.24 ± 0.05 s⁻¹
- kobs2 (L25A PETNR; 30 °C): 0.16 ± 0.03 s⁻¹
- A2 (amplitude of kobs2 out of total absorbance change) (L25A PETNR; 35 °C): 14.06 ± 0.45%
- kobs1 (L25A PETNR; 35 °C): 11.89 ± 0.07 s⁻¹
- kobs2 (L25A PETNR; 35 °C): 0.17 ± 0.01 s⁻¹
- A2 (amplitude of kobs2 out of total absorbance change) (L25A PETNR; 40 °C): 31.19 ± 1.07%
- kobs1 (L25A PETNR; 40 °C): 12.39 ± 0.22 s⁻¹
- kobs2 (L25A PETNR; 40 °C): 0.26 ± 0.02 s⁻¹
- ΔCp^⧧ (L25A PETNR; [3]): –0.78 ± 0.15 kJ mol^–1 K^–1
- ΔHT0^⧧ (L25A PETNR; [3]): 31.9 ± 1.1 kJ mol^–1
- ΔST0^⧧ (L25A PETNR; [3]): –120.5 ± 3.7 J mol^–1 K^–1
- Isotope Effect on ΔCp^⧧ (L25A PETNR; [4]): 0.14 ± 0.19 kJ mol^–1 K^–1
- Isotope Effect on ΔHT0^⧧ (L25A PETNR; [4]): 8.6 ± 1.27 kJ mol^–1
- Isotope Effect on ΔST0^⧧ (L25A PETNR; [4]): 13.3 ± 5.6 J mol^–1 K^–1
- kobs1 (L25I PETNR; 5 °C): 1.26 ± 0.02 s⁻¹
- kobs1 (L25I PETNR; 15 °C): 2.46 ± 0.01 s⁻¹
- A2 (amplitude of kobs2 out of total absorbance change) (L25I PETNR; 20 °C): 2.63 ± 0.15%
- kobs1 (L25I PETNR; 20 °C): 3.42 ± 0.03 s⁻¹
- kobs2 (L25I PETNR; 20 °C): 0.19 ± 0.04 s⁻¹
- A2 (amplitude of kobs2 out of total absorbance change) (L25I PETNR; 25 °C): 3.59 ± 0.27%
- kobs1 (L25I PETNR; 25 °C): 4.50 ± 0.02 s⁻¹
- kobs2 (L25I PETNR; 25 °C): 0.27 ± 0.03 s⁻¹
- kobs1 (L25I PETNR; 30 °C): 5.72 ± 0.06 s⁻¹
- kobs2 (L25I PETNR; 30 °C): 0.28 ± 0.01 s⁻¹
- A2 (amplitude of kobs2 out of total absorbance change) (L25I PETNR; 35 °C): 7.05 ± 0.36%
- kobs1 (L25I PETNR; 35 °C): 7.20 ± 0.07 s⁻¹
- kobs2 (L25I PETNR; 35 °C): 0.42 ± 0.07 s⁻¹
- A2 (amplitude of kobs2 out of total absorbance change) (L25I PETNR; 40 °C): 12.46 ± 0.45%
- kobs1 (L25I PETNR; 40 °C): 8.66 ± 0.09 s⁻¹
- ΔCp^⧧ (L25I PETNR; [3]): –0.53 ± 0.09 kJ mol^–1 K^–1
- ΔHT0^⧧ (L25I PETNR; [3]): 36.7 ± 0.5 kJ mol^–1
- Isotope Effect on ΔCp^⧧ (L25I PETNR; [4]): –0.11 ± 0.11 kJ mol^–1 K^–1
- Isotope Effect on ΔHT0^⧧ (L25I PETNR; [4]): 6.3 ± 0.7 kJ mol^–1
- Isotope Effect on ΔST0^⧧ (L25I PETNR; [4]): 5.4 ± 2.5 J mol^–1 K^–1
- ΔCp⧧ (WT PETNR [1]; pH 6, MTEN buffer): -0.57 ± 0.15 kJ mol-1 K-1
- ΔHT0⧧ (WT PETNR [1]; pH 6, MTEN buffer): 7.89 ± 0.22 kcal/mol
- Isotope effect on ΔCp⧧ (WT PETNR [1]; pH 6, MTEN buffer): 0.01 ± 0.18 kJ mol-1 K-1
- Isotope effect on ΔHT0⧧ (WT PETNR [1]; pH 6, MTEN buffer): 1.39 ± 0.263 kcal/mol
- Isotope effect on ΔST0⧧ (WT PETNR [1]; pH 6, MTEN buffer): 3.7 ± 3.5 J mol-1 K-1
- ΔCp⧧ (WT PETNR [1]; pH 7, MTEN buffer): -0.54 ± 0.09 kJ mol-1 K-1
- ΔHT0⧧ (WT PETNR [1]; pH 7, MTEN buffer): 8.27 ± 0.12 kcal/mol
- ΔST0⧧ (WT PETNR [1]; pH 7, MTEN buffer): -115.0 ± 1.8 J mol-1 K-1
- Isotope effect on ΔCp⧧ (WT PETNR [1]; pH 7, MTEN buffer): 0.07 ± 0.12 kJ mol-1 K-1
- Isotope effect on ΔHT0⧧ (WT PETNR [1]; pH 7, MTEN buffer): 1.67 ± 0.17 kcal/mol
- Isotope effect on ΔST0⧧ (WT PETNR [1]; pH 7, MTEN buffer): 7.7 ± 2.4 J mol-1 K-1
- ΔCp⧧ (WT PETNR [1]; pH 9, MTEN buffer): -0.48 ± 0.07 kJ mol-1 K-1
- ΔHT0⧧ (WT PETNR [1]; pH 9, MTEN buffer): 8.48 ± 0.096 kcal/mol
- ΔST0⧧ (WT PETNR [1]; pH 9, MTEN buffer): -111.9 ± 1.3 J mol-1 K-1
- Isotope effect on ΔCp⧧ (WT PETNR [1]; pH 9, MTEN buffer): -0.03 ± 0.13 kJ mol-1 K-1
- Isotope effect on ΔHT0⧧ (WT PETNR [1]; pH 9, MTEN buffer): 1.58 ± 0.19 kcal/mol
- Isotope effect on ΔST0⧧ (WT PETNR [1]; pH 9, MTEN buffer): 6.7 ± 2.6 J mol-1 K-1
- kobs1 (WT PETNR [2]; 5 °C): 1.51 ± 0.01 s⁻¹
- kobs1 (WT PETNR [2]; 10 °C): 2.13 ± 0.01 s⁻¹
- kobs1 (WT PETNR [2]; 15 °C): 2.90 ± 0.01 s⁻¹
- kobs1 (WT PETNR [2]; 20 °C): 3.95 ± 0.02 s⁻¹
- kobs1 (WT PETNR [2]; 25 °C): 5.20 ± 0.04 s⁻¹
- kobs1 (WT PETNR [2]; 30 °C): 6.59 ± 0.04 s⁻¹
- A2 (amplitude of kobs2 out of total absorbance change) (WT PETNR [2]; 35 °C): 2.54 ± 0.53%
- kobs1 (WT PETNR [2]; 35 °C): 8.48 ± 0.03 s⁻¹
- kobs2 (WT PETNR [2]; 35 °C): 1.22 ± 0.45 s⁻¹
- A2 (amplitude of kobs2 out of total absorbance change) (WT PETNR [2]; 40 °C): 3.41 ± 0.65%
- kobs1 (WT PETNR [2]; 40 °C): 9.96 ± 0.18 s⁻¹
- kobs2 (WT PETNR [2]; 40 °C): 1.11 ± 0.24 s⁻¹
- ΔCp^⧧ (WT PETNR [2]; [3]): –0.32 ± 0.04 kJ mol^–1 K^–1
- ΔHT0^⧧ (WT PETNR [2]; [3]): 36.8 ± 0.3 kJ mol^–1
- Isotope Effect on ΔCp^⧧ (WT PETNR [2]; [4]): 0.18 ± 0.06 kJ mol^–1 K^–1
- Isotope Effect on ΔHT0^⧧ (ΔΔHT0^⧧) (WT PETNR [2]; [4]): 6.4 ± 0.4 kJ mol^–1
- Isotope Effect on ΔST0^⧧ (WT PETNR [2]; [4]): 5.8 ± 1.5 J mol^–1 K^–1

SMILES: NC(=O)C1=CN([C@@H]2O[C@H](COP(=O)(O)OP(=O)(O)OC[C@H]3O[C@@H](n4cnc5c(N)ncnc54)[C@H](O)[C@@H]3O)[C@@H](O)[C@H]2O)CCC1 [NADH4, 1,4,5,6-tetrahydro-NAD]
- Kd (PETNR): 140 µM
